According to patent publication US11110105B2, “Compounds, composition and uses thereof for treating cancer” (INSTITUT GUSTAVE ROUSSY, priority 2017, dated 2021):
Like-named read-outs stand apart in the source and are kept apart here.

Experiments:
[1] = system: MCA205 globin-SL8-intron (MCA205 GI) tumors; experiment: Tumor challenge, MCA205 globin-SL8-intron in immunocompetent C57BL/6 mice; assay type: in vivo, mouse; details: for tumor growth: C57BL/6
Experimental: (A) Experimental settings. (B) MCA205 globin-SL8-intron cells were inoculated subcutaneously on the mice flank. Five days and fifteen days later, 6 mg/kg, 12 mg/kg or 18 mg/kg isoginkgetin was injected intraperitoneally. Tumor size was assessed every 3 to 4 days until day 27. Each line represents the tumor size in area (mm^2) of 6 mice in each group. Data are given as mean ±SEM. *p<0.05 (ANOVA with Tukey's multiple comparison test comparing all groups).
(A) Experimental settings. Growth of (B) sarcoma MCA205 or (C) melanoma B16F10 cells that both stably express the globin-SL8-intron construct or (D) MCA205 Wild Type (WT) or (E) B16F10 WT cells that were subcutaneously inoculated on the flank of immunocompetent C57BL/6 mice injected intraperitoneally with 12 mg/kg or 18 mg/kg of isoginkgetin at days 5, 10 and 15 after inoculation. Tumor size was assessed every 3 to 4 days until reaching the established ethical endpoints. Each line represents the tumor size in area (mm^2) of 6 mice in each group. Size in area (mm^2) of (F) MCA205 globin-SL8-intron, (G) B16F10 globin-SL8-intron, (H) MCA205 WT or (I) B16F10 WT tumors subcutaneously inoculated on the flank of immunodeficient Nu/Nu Nude mice injected intraperitoneally with 18 mg/kg of isoginkgetin at days 5, 10 and 15 after inoculation. Data are presented at the day before the endpoints are reached.
Data are given as mean ±SEM. *P<0.05, **P<0.01, ***P<0.001 (unpaired student t test). […] Tumor size was assessed every 3 to 4 days until reaching the established ethical endpoints. Each line represents the tumor size in area (mm^2) of at least 6 mice in each group. Data are given as mean ±SEM. *p<0.05, **p<0.01 (ANOVA with Tukey's multiple comparison test comparing all groups). […] A Log-rank (Mantel-Cox) test was performed.
C57B1/6J female mice are obtained from Harlan. NU/NU nude mouse mice are obtained from Charles River. At 7 weeks old, mice are injected subcutaneously on the right flank with 5×10^4 MCA205-Globin-SL8-intron cells or with 4×10^4 B16F10-Globin-SL8-intron cells along with matrigel (VWR). […] Fifteen days after challenge mouse are again treated intreaperitonealy with the same drug. Area of the tumor is recorded every 3 to 4 days until day 27. All animal experiments were carried out in compliance with French and European laws and regulations. Results are expressed as mean ±SEM. *p<0.05, **P<0.01, ***P<0.001 (ANOVA with Tukey's multiple comparison test comparing all groups).

[2] = system: MCA205 globin-SL8-intron tumors; experiment: Tumor challenge, MCA205 globin-SL8-intron in immunodeficient Nu/Nu nude mice; assay type: in vivo, mouse; details: 18 mg/kg intraperitoneally
Experimental: (D) MCA205 globin-SL8-intron cells were inoculated subcutaneously on the […] mice flank. […] Tumor size was assessed every 3 to 4 days until day 27. Each line represents the tumor size in area (mm^2) of 6 mice in each group. Data are given as mean ±SEM. *p<0.05, **p<0.01 (ANOVA with Tukey's multiple comparison test comparing all groups). (E) MCA205 globin-SL8-intron cells were inoculated subcutaneously on the Nude nu/nu mice flank. […] Tumor size was assessed every 3 to 4 days until day 27. Each line represents the tumor size in area (mm^2) of 6 mice in each group. Data are given as mean ±SEM. (A) Experimental settings. Growth of (B) sarcoma MCA205 or (C) melanoma B16F10 cells that both stably express the globin-SL8-intron construct or (D) MCA205 Wild Type (WT) or (E) B16F10 WT cells that were subcutaneously inoculated on the flank of immunocompetent C57BL/6 mice injected intraperitoneally with 12 mg/kg or 18 mg/kg of isoginkgetin at days 5, 10 and 15 after inoculation. Tumor size was assessed every 3 to 4 days until reaching the established ethical endpoints. Each line represents the tumor size in area (mm^2) of 6 mice in each group. […] Area of the tumor is recorded every 3 to 4 days until day 27. […] Results are expressed as mean ±SEM. *[…] with Tukey's multiple comparison test comparing all groups).

Water solubility = assay type: physicochemical
[3] = 18 mg/kg intraperitoneally, days 5, 10 and 15
[4] = 18 mg/kg intraperitoneally, days 5 and 15

Compound	survival (Kaplan Meier) ([1]; 18 mg/kg intraperitoneally)	tumor growth [1, 3]	tumor growth [1, 4]	tumor growth ([2]; days 5 and 15)	water solubility (Water solubility)	water solubility (Water solubility; listed as M2P2)	reduction of tumor growth at day 27 after challenge ([1]; 6 mg/kg intraperitoneally, days 5 and 15)	reduction of tumor size at day 27 after challenge ([1]; 12 mg/kg intraperitoneally, days 5, 10 and 15)	reduction of tumor size at day 27 after challenge [1, 3]	reduction of tumor growth at day 27 after challenge [1, 4]	survivors 100 days after tumor inoculation ([1]; 18 mg/kg intraperitoneally, Kaplan Meier)	tumor growth ([2]; days 5, 10 and 15)
COc1ccc(-c2cc(=O)c3c(OC)cc(OP(=O)([O-])[O-])c(-c4cc(-c5cc(=O)c6c(OC)cc(OP(=O)([O-])[O-])cc6o5)ccc4OC)c3o2)cc1.[Na+].[Na+].[Na+].[Na+] [IM2P2]	does not impact survival	no impact	did not demonstrate any tumor growth decrease	any of the compounds used have an effect on the tumor growth	able to be dissolved in water	considerably higher than that of the parent compound isoginkgetin	–	–	–	–	–	–
COc1ccc(-c2cc(=O)c3c(O)cc(O)c(-c4cc(-c5cc(=O)c6c(O)cc(O)cc6o5)ccc4OC)c3o2)cc1 [Isoginkgetin, isoginkgetin]	–	–	–	–	insoluble in water	–	50%	over 50%	over 50%	50%	around 30%	No effect
